Some test systems named below: HCT-116 colon; SK-MEL-28 melanoma; 786-0 renal; OVCAR-3 ovarian; UO-31 renal; CCRF-CEM leukemia; MCF7 breast; OVCAR-8 ovarian; COLO 205 colon; OVCAR-5 ovarian; SF-268 CNS; UACC-62 melanoma; HOP-62 NSCLC; NCI-H522 lung; PC-3 prostate; MDA-MB-231 breast; HCT-15 colon; HT29 colon; SR leukemia.
Common to all, as to assay: DTP human tumour cell line panel, 48 h

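These data come from cells grown in 96-well plates and exposed to compound for 48 hours at five concentrations. TGI is the concentration that stops growth completely.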

Take `CCC(C)N1CN(c2ccccc2)C2(CCN(CCCSc3ccc(F)cc3)CC2)C1=O` (stereo not drawn): the TGI is 10.1 µM in the test on HCT-116 colon; 23.8 µM in the test on SK-MEL-28 melanoma; 7.88 µM with 786-0 renal; 7.25 µM in the test with OVCAR-3 ovarian; 6.61 µM in the test on UO-31 renal; 7.22 µM in the test on CCRF-CEM leukemia. The TGI with MCF7 breast came to 11.1 µM; in the test on OVCAR-8 ovarian it was 21.5 µM; with COLO 205 colon, 3.47 µM; in the test with OVCAR-5 ovarian it was 7.06 µM; in the test with SF-268 CNS, 23.7 µM; with UACC-62 melanoma, 17.5 µM. For the same compound, the total growth inhibition concentration (TGI) came out at 4.74 µM in the test with HOP-62 NSCLC; 18.9 µM with NCI-H522 lung; 19.4 µM in the test on PC-3 prostate; 1.1 µM in the test on MDA-MB-231 breast; 4.2 µM with HCT-15 colon; 8.3 µM in the test with HT29 colon. Besides, the total growth inhibition concentration (TGI) in the test with SR leukemia amounted to 46.7 µM.

On to `C[C@@]1(OC(=O)c2cc([N+](=O)[O-])cc([N+](=O)[O-])c2)C[C@@H]2CCCC[C@@H]21`, for which the TGI in the test with HCT-116 colon, in the test on SK-MEL-28 melanoma, in the test on 786-0 renal, in the test on UO-31 renal, in the test on CCRF-CEM leukemia and in the test with MCF7 breast was more than 100 µM throughout. Also, the TGI in the test on OVCAR-8 ovarian, with COLO 205 colon, with OVCAR-5 ovarian, in the test with SF-268 CNS, in the test with UACC-62 melanoma and in the test on HOP-62 NSCLC was more than 100 µM each time. Further, the TGI in the test with NCI-H522 lung, with PC-3 prostate, with MDA-MB-231 breast, in the test on HCT-15 colon, with HT29 colon and in the test on SR leukemia was more than 100 µM throughout.

On to `COc1cc(C(=O)O)c(-c2cc3c(cc2C=O)OCO3)c(OC)c1OC`, for which the concentration for total growth inhibition (TGI) in the test on HCT-116 colon, with SK-MEL-28 melanoma, in the test on 786-0 renal, in the test with OVCAR-3 ovarian, in the test with CCRF-CEM leukemia and in the test with MCF7 breast was more than 10 µM throughout. Besides, the TGI in the test on OVCAR-8 ovarian, in the test with COLO 205 colon, in the test on SF-268 CNS, in the test on UACC-62 melanoma, in the test with HOP-62 NSCLC and in the test on NCI-H522 lung was more than 10 µM in each case. Moreover, the TGI in the test on PC-3 prostate, in the test with MDA-MB-231 breast, with HCT-15 colon, in the test with HT29 colon and in the test on SR leukemia was more than 10 µM each time.

Take `O=[N+]([O-])/C=C/c1cn(CCCCCCCCCCCCn2cc(/C=C/[N+](=O)[O-])c3ccccc32)c2ccccc12`: the TGI with HCT-116 colon, in the test with SK-MEL-28 melanoma, in the test on 786-0 renal, in the test on OVCAR-3 ovarian, in the test with UO-31 renal and with CCRF-CEM leukemia was more than 100 µM each time. The TGI in the test on MCF7 breast, with OVCAR-8 ovarian, in the test on COLO 205 colon, in the test on OVCAR-5 ovarian, in the test on UACC-62 melanoma and in the test with HOP-62 NSCLC was more than 100 µM in each case. For the same compound, the total growth inhibition concentration (TGI) in the test on NCI-H522 lung, with PC-3 prostate, in the test with MDA-MB-231 breast, with HCT-15 colon, in the test with HT29 colon and with SR leukemia was more than 100 µM in each case.

For the compound `O=C1CSC(c2ccccc2O)N1c1ccc(Oc2ccc(Cl)cc2)c(Cl)c1` (stereo not drawn), the TGI with HCT-116 colon worked out at 28.6 µM; with SK-MEL-28 melanoma, 57.4 µM; with 786-0 renal, 36.4 µM; in the test with OVCAR-3 ovarian, 62.4 µM; in the test with UO-31 renal it was 20.7 µM; in the test with CCRF-CEM leukemia, 65.1 µM. Further, the total growth inhibition concentration (TGI) was 86.3 µM in the test with MCF7 breast; 74.6 µM in the test on OVCAR-8 ovarian; 35 µM in the test on COLO 205 colon; 81.8 µM in the test with OVCAR-5 ovarian; 31.4 µM with SF-268 CNS; 34.3 µM in the test on UACC-62 melanoma. Further, the TGI with HOP-62 NSCLC was 42.3 µM; with NCI-H522 lung it was 36.8 µM; in the test with PC-3 prostate, 60 µM; with MDA-MB-231 breast, 34.3 µM; in the test with HCT-15 colon it was 46.9 µM; with HT29 colon, 37.3 µM. The compound further registered a TGI with SR leukemia of 40.2 µM.

With `O=C(O)Cc1cccc2c(=O)c3cccc([N+](=O)[O-])c3[nH]c12`, the concentration for total growth inhibition (TGI) in the test with HCT-116 colon, in the test with 786-0 renal, in the test with OVCAR-3 ovarian, in the test with UO-31 renal, in the test on CCRF-CEM leukemia and in the test with MCF7 breast was more than 100 µM in each case. Further, the TGI in the test on OVCAR-8 ovarian was more than 100 µM; in the test with COLO 205 colon it was 39.4 µM; in the test on OVCAR-5 ovarian, more than 100 µM; with UACC-62 melanoma, 76 µM; in the test with HOP-62 NSCLC, more than 100 µM; in the test on NCI-H522 lung, more than 100 µM. Moreover, the TGI in the test with PC-3 prostate, in the test with MDA-MB-231 breast, with HCT-15 colon, in the test with HT29 colon and in the test with SR leukemia was more than 100 µM in each case.

Usually TGI stands for the concentration giving total growth inhibition. Higher therefore signals lower sensitivity of the cells.

These data come from PubChem BioAssay (NCI).
